From the NIST ThermoML archive (doi:10.1016/j.jct.2013.05.012)

Columns and labels:
[1] = wn = mass fraction of the nth substance listed; conditions: 101 kPa, Liquid; for mass density: Pycnometric method; for viscosity: Capillary tube (Ostwald / Ubbelohde) method; for speed of sound: variable-path interferometer
[2] = mn = molality of the nth substance listed, in mol/kg; conditions: 101 kPa, Liquid, variable-path interferometer
[3] = 101 kPa, Liquid, Linear variable-path acoustic interferometer

OC[C@H]1O[C@@](CO)(O[C@H]2O[C@H](CO)[C@@H](O)[C@H](O)[C@H]2O)[C@@H](O)[C@@H]1O [D-sucrose] + O
[1]
Conditions	mass density [kg/m3]	speed of sound [m/s]	viscosity [mPa·s]
293.15 K, w1 = 0.05	1018.91	–	–
293.15 K, w1 = 0.1	1039.28	–	–
293.15 K, w1 = 0.15	1060.31	–	–
293.15 K, w1 = 0.2	1082.73	–	–
298.15 K, w1 = 0.05	1017.19	1516.5	1.011
298.15 K, w1 = 0.1	1037.45	1531.8	1.183
298.15 K, w1 = 0.15	1058.49	1543.6	1.418
298.15 K, w1 = 0.2	1080.77	1555.3	1.756
303.15 K, w1 = 0.05	1015.45	1526.6	0.9129
303.15 K, w1 = 0.1	1035.61	1541.8	1.061
303.15 K, w1 = 0.15	1056.67	1553	1.252
303.15 K, w1 = 0.2	1078.8	1564.6	1.549
308.15 K, w1 = 0.05	1013.72	1537.8	0.8285
308.15 K, w1 = 0.1	1033.76	1551.6	0.9614
308.15 K, w1 = 0.15	1054.84	1562	1.129
308.15 K, w1 = 0.2	1076.84	1575.2	1.396
313.15 K, w1 = 0.05	1011.98	1547.7	0.7457
313.15 K, w1 = 0.1	1031.93	1561.8	0.8804
313.15 K, w1 = 0.15	1053.01	1570.8	1.025
313.15 K, w1 = 0.2	1074.88	1583.9	1.25
318.15 K, w1 = 0.05	1010.23	1557.2	0.6946
318.15 K, w1 = 0.1	1030.09	1570.9	0.8179
318.15 K, w1 = 0.15	1051.2	1579.2	0.9402
318.15 K, w1 = 0.2	1072.93	1592.8	1.15

C[C@@H](O)[C@H](N)C(=O)O [L-threonine] + O
speed of sound [m/s], [2]
Conditions	m1 = 0.0249	m1 = 0.0498	m1 = 0.0749	m1 = 0.0999	m1 = 0.125	m1 = 0.1499	m1 = 0.1749	m1 = 0.1999
298.15 K	1501.1	1505.5	1510.2	1515.2	1520.5	1526.1	1531.9	1538.1
303.15 K	1512.5	1516.9	1521.6	1526.5	1531.7	1537.3	1543.2	1549.4
308.15 K	1523.8	1528.1	1532.7	1537.5	1542.7	1548.2	1553.9	1560.1
313.15 K	1530.7	1534.9	1539.4	1544.1	1549.2	1554.5	1560.2	1566.1
318.15 K	1536.8	1540.9	1545.2	1549.8	1554.8	1560	1565.5	1571.3

O [water]
[3]
Conditions	speed of sound [m/s]
303.15 K	1508.4
313.15 K	1526.8
318.15 K	1533
